Experimental data published in patent publication US20250051359A1, “MACROCYCLIC 2-AMINO-BUT-3-ENAMIDES AS INHIBITORS OF MCL-1” (JANSSEN PHARMACEUTICA NV, priority 2021, published 2025).

Columns and labels:
[1] = biological target: Myeloid Cell Leukemia 1 (Mcl-1) (Homo sapiens, UniProt Q07820); test: Terbium labeled Mcl-1 HTRF binding assay, displacement of Cy5-labeled BIM BH3 peptide; conditions: 25 pM Tb-Mcl-1, 8 nM Cy5 Bim peptide, 60 min at room temperature, read-out: Tb-MCL1 Ki
Procedure: Terbium labeled Myeloid Cell Leukemia 1(Mcl-1) homogeneous time-resolved fluorescence (HTRF) binding assay utilizing the BIM BH3 peptide (H2N—(C/Cy5Mal) WIAQELRRIGDEFN-OH) as the binding partner for Mcl-1.
This assay evaluated inhibition of the BH3 domain: Mcl-1 interaction by measuring the displacement of Cy5-labeled BIM BH3 peptide (H2N—(C/Cy5Mal) WIAQELRRIGDEFN-OH) in the HTRF assay format.
The following assay and stock buffers were prepared for use in the assay: (a) Stock buffer: 10 mM Tris-HCl, pH=7.5+150 mM NaCl, filtered, sterilized, and stored at 4° C.; and (b) 1× assay buffer, where the following ingredients were added fresh to stock buffer: 2 mM dithiothreitol (DTT), 0.0025% Tween-20, 0.1 mg/mL bovine serum albumin (BSA). The 1×Tb-Mcl-1+Cy5 Bim peptide solution was prepared by diluting the protein stock solution using the 1× assay buffer (b) to 25 pM Tb-Mel-1 and 8 nM Cy5 Bim peptide.
Using the Acoustic ECHO, 100 nL of 100× test compound(s) were dispensed into individual wells of a white 384-well Perkin Elmer Proxiplate, for a final compound concentration of 1× and final DMSO concentration of 1%. Inhibitor control and neutral control (NC, 100 nL of 100% DMSO) were stamped into columns 23 and 24 of assay plate, respectively. Into each well of the plate was then dispensed 10 μL of the 1×Tb-Mcl-1+Cy5 Bim peptide solution. The plate was centrifuged with a cover plate at 1000 rpm for 1 minute, then incubated for 60 minutes at room temperature with plates covered.
The TR-FRET signal was read on an BMG PHERAStar FSX MicroPlate Reader at room temperature using the HTRF optic module (HTRF: excitation: 337 nm, light source: laser, emission A: 665 nm, emission B: 620 nm, integration start: 60 μs, integration time: 400 μs).
The BMG PHERAStar FSX MicroPlate Reader was used to measure fluorescence intensity at two emission wavelengths—665 nm and 620 nm—and report relative fluorescence units (RFU) for both emissions, as well as a ratio of the emissions (665 nm/620 nm)*10,000. The RFU values were normalized to percent inhibition as follows:
% inhibition(((NC−IC)−(compound−IC))(NC−IC))*100
where IC (inhibitor control, low signal)=mean signal of 1×Tb-MCl-1+Cy5 Bim peptide+inhibitor control or 100% inhibition of Mcl-1; NC (neutral control, high signal)=mean signal 1×Tb-MCl-1+Cy5 Bim peptide with DMSO only or 0% inhibition An 11-point dose response curve was generated to determine IC50 values (using GenData) based on the following equation:
where Y=% inhibition in the presence of X inhibitor concentration; Top=100% inhibition derived from the IC (mean signal of Mcl-1+inhibitor control); Bottom=0% inhibition derived from the NC (mean signal of Mcl-1+DMSO); Hillslope=Hill coefficient; and IC50=concentration of compound with 50% inhibition in relation to top/neutral control (NC).
Representative compounds of the present invention were tested according to the procedure as described above, with results as listed in the Table below (n.d. means not determined).

[2] = system: MOLP-8 human multiple myeloma cell line; test: Caspase-Glo 3/7 apoptosis induction assay in MOLP-8 cells; format: cell-based; conditions: caspase-3/7 activity, 2 hours at 37° C., averaged over all runs on all batches, read-out: MOLP8 AC50
Excerpt: MCL-1 is a regulator of apoptosis and is highly over-expressed in tumor cells that escape cell death. The assay evaluates the cellular potency of small-molecule compounds targeting regulators of the apoptosis pathway, primarily MCL-1, Bfl-1, Bcl-2, and other proteins of the Bcl-2 family. Protein-protein inhibitors disrupting the interaction of anti-apoptotic regulators with BH3-domain proteins initiate apoptosis.
The Caspase-Glo® 3/7 Assay is a luminescent assay that measures caspase-3 and −7 activities in purified enzyme preparations or cultures of adherent or suspension cells. The assay provides a proluminescent caspase-3/7 substrate, which contains the tetrapeptide sequence DEVD. This substrate is cleaved to release aminoluciferin, a substrate of luciferase used in the production of light. Addition of the single Caspase-Glo® 3/7 Reagent in an “add-mix-measure” format results in cell lysis, followed by caspase cleavage of the substrate and generation of a “glow-type” luminescent signal.
This assay uses the MOLP-8 human multiple myeloma cell line, which is sensitive to MCL-1 inhibition.
Cell cultures were maintained between 0.2 and 2.0×10^6 cells/mL. The cells were harvested by collection in 50 mL conical tubes. The cells were then pelleted at 500 g for 5 mins before removing supernatant and resuspension in fresh pre-warmed culture medium. The cells were counted and diluted as needed.
The assay reagent was prepared by transferring the buffer solution to the substrate vial and mixing. The solution may be stored for up to 1 week at 4° C. with negligible loss of signal.
Compounds were delivered in assay-ready plates (Proxiplate) and stored at −20° C.
Assays always include 1 reference compound plate containing reference compounds. The plates were spotted with 40 nL of compounds (0.5% DMSO final in cells; serial dilution; 30 μM highest conc. 1/3 dilution, 10 doses, duplicates). The compounds were used at room temperature and 4 μL of pre-warmed media was added to all wells except column 2 and 23. The negative control was prepared by adding 1% DMSO in media. The positive control was prepared by adding the appropriate positive control compound in final concentration of 60 μM in media. The plate was prepared by adding 4 μL negative control to column 23, 4 μL positive control to column 2 and 4 μL cell suspension to all wells in the plate. The plate with cells was then incubated at 37° C. for 2 hours. The assay signal reagent is the Caspase-Glo solution described above, and 8 μL was added to all wells. The plates were then sealed and measured after 30 minutes.
The activity of a test compound was calculated as percent change in apoptosis induction as follows: • LC=median of the Low Control values • =Central Reference in Screener • =DMSO • =[…] • HC=Median of the High Control values • =Scale Reference in Screener • =30 μM of positive control • =100% apoptosis induction
% Effect (AC50)=100−((sample−LC)/(HC−LC))*100
% Control=(sample/HC)*100
% Control min=((sample−LC)/(HC−LC))*100

Myeloid Cell Leukemia 1 (Mcl-1), sequence (Q07820 whole entry): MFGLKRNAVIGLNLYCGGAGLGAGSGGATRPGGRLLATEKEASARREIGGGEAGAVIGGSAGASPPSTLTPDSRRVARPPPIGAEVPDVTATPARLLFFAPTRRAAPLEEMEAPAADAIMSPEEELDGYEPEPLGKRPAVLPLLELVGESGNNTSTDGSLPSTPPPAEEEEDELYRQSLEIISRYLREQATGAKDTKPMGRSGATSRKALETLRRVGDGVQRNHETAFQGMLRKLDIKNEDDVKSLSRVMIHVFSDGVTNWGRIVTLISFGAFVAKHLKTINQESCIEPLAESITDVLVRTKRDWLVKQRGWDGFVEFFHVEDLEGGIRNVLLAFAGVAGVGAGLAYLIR

C[C@@H]1[C@@H](C)C/C=C/[C@H](C(=O)N2CCOCC2)N2CC[C@H]2CN2C[C@@]3(CCCc4cc(Cl)ccc43)COc3ccc(cc32)C(=O)NS1(=O)=O [Compound 8]
Ki [1]: 0.705 nM | AC50 [2]: 340 nM

C[C@@H]1[C@@H](C)C/C=C/[C@H](C(=O)N(C)CCC2CCOCC2)N2CCC[C@H]2CN2C[C@@]3(CCCc4cc(Cl)ccc43)COc3ccc(cc32)C(=O)NS1(=O)=O [Compound 2]
Ki [1]: 0.058 nM | AC50 [2]: 130 nM

CC1CC=CC(C(=O)N(C)CCN2CCOCC2)N2CCCC2CN2CC3(CCCc4cc(Cl)ccc43)COc3ccc(cc32)C(=O)NS(=O)(=O)C1C (centres unmarked) [Compound 5]
Ki [1]: 0.024 nM | AC50 [2]: 180 nM

C[C@@H]1[C@@H](C)C/C=C/[C@@H](C(=O)N2CCOCC2)N2CC[C@H]2CN2C[C@@]3(CCCc4cc(Cl)ccc43)COc3ccc(cc32)C(=O)NS1(=O)=O [Compound 9]
Ki [1]: 0.196 nM | AC50 [2]: 660 nM

COCCN(CCOC)C(=O)[C@H]1/C=C/C[C@H](C)[C@@H](C)S(=O)(=O)NC(=O)c2ccc3c(c2)N(C[C@@H]2CCCN21)C[C@@]1(CCCc2cc(Cl)ccc21)CO3 [Compound 1]
Ki [1]: 0.03 nM | AC50 [2]: 56 nM

C[C@@H]1[C@@H](C)C/C=C/[C@H](C(=O)N(C)CC2CCOCC2)N2CCC[C@H]2CN2C[C@@]3(CCCc4cc(Cl)ccc43)COc3ccc(cc32)C(=O)NS1(=O)=O [Compound 3]
Ki [1]: 0.027 nM | AC50 [2]: 81 nM

C[C@@H]1[C@@H](C)C/C=C/[C@H](C(=O)N(C)C)N2CCC[C@H]2CN2C[C@@]3(CCCc4cc(Cl)ccc43)COc3ccc(cc32)C(=O)NS1(=O)=O [Compound 4]
Ki [1]: 0.142 nM | AC50 [2]: 180 nM

C[C@@H]1[C@@H](C)C/C=C/[C@H](C(=O)N2CCOCC2)N2CCC[C@H]2CN2C[C@@]3(CCCc4cc(Cl)ccc43)COc3ccc(cc32)C(=O)NS1(=O)=O [Compound 7]
Ki [1]: 0.089 nM | AC50 [2]: 360 nM

C[C@@H]1[C@@H](C)C/C=C/[C@@H](C(=O)N2CCOCC2)N2CCC[C@H]2CN2C[C@@]3(CCCc4cc(Cl)ccc43)COc3ccc(cc32)C(=O)NS1(=O)=O [Compound 6]
AC50 [2]: 1950 nM
